Assay results published in PubChem BioAssay (NCI).
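Interpolation was linear, between the two tested concentrations surrounding the appropriate level; five concentrations were tested over 48 hours in 96-well plates. GI50 is the concentration that inhibits growth by half. TGI marks complete inhibition of growth.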

Legend:
Assay in all cases: inhibition of tumour cell growth, NCI panel, 48 h
[1] = system: HCT-15 colon
[2] = system: HL-60(TB) leukemia
[3] = system: K-562 leukemia
[4] = system: MALME-3M melanoma
[5] = system: NCI-H23 lung
[6] = system: NCI-H522 lung
[7] = system: NCI/ADR-RES ovarian
[8] = system: SF-539 CNS
[9] = system: SK-MEL-2 melanoma
[10] = system: UACC-257 melanoma

| Structure (SMILES) | GI50 [1] | TGI [1] | GI50 [2] | TGI [2] | GI50 [3] | TGI [3] | GI50 [4] | TGI [4] | GI50 [5] | TGI [5] | GI50 [6] | TGI [6] | GI50 [7] | TGI [7] | GI50 [8] | TGI [8] | GI50 [9] | TGI [9] | TGI [10] | GI50 [10] |
| --- | --- | --- | --- | --- | --- | --- | --- | --- | --- | --- | --- | --- | --- | --- | --- | --- | --- | --- | --- | --- |
| COc1ccc(S(=O)(=O)N(C(C)=O)c2ccccc2/C=C/c2cc[n+]([O-])cc2)cc1 | 0.742 µM | > 10 µM | 0.64 µM | > 6.53 µM | 0.321 µM | > 3.17 µM | 3.77 µM | > 10 µM | 1.22 µM | > 10 µM | 0.225 µM | 1.65 µM | 2.51 µM | > 10 µM | 0.377 µM | 2.45 µM | 0.54 µM | > 10 µM | > 10 µM | – |
| C=C1CCC2C3(C)COC(c4ccccc4Cl)OC3CCC2(C)C1/C=C/C1=CCOC1=O (centres undefined) | 6.6 µM | > 100 µM | 4.97 µM | > 100 µM | 3.61 µM | > 100 µM | 17.2 µM | > 100 µM | 6.18 µM | > 100 µM | 4.24 µM | > 100 µM | 7.74 µM | > 100 µM | 24 µM | > 100 µM | 77.7 µM | > 100 µM | > 100 µM | 9.09 µM |
| CCCCn1c(=O)c(/C=C/C(=O)/C=C/c2cc3ccccc3n(CCCC)c2=O)cc2ccccc21 | 1.29 µM | 2.87 µM | 1.71 µM | 6.63 µM | – | – | 2.29 µM | 5.33 µM | – | – | 1.86 µM | 4.07 µM | 3.01 µM | 13.5 µM | 1.47 µM | 3.57 µM | 2.09 µM | 5.7 µM | 3 µM | 1.61 µM |
| CCOC(=O)/C=C/c1cccc(F)c1 | – | > 100 µM | – | > 100 µM | – | > 100 µM | – | > 100 µM | – | > 100 µM | – | > 100 µM | – | > 100 µM | – | > 100 µM | – | > 100 µM | > 100 µM | – |
| CC(C)(C)OC(=O)N[C@@H](Cc1ccccc1)C(=O)N(Cc1ccccc1)C1(C(=O)NCc2ccccc2)CCN(Cc2ccccc2)CC1 | 3.16 µM | > 100 µM | 2.5 µM | 6.1 µM | 3.39 µM | > 100 µM | 3.02 µM | – | 5.67 µM | > 100 µM | 4.02 µM | > 100 µM | 2.85 µM | 46.9 µM | – | – | – | – | > 100 µM | 2.54 µM |
| CCn1c2ccccc2c2cc(C(=O)c3ccc(C)c4ccccc34)ccc21 | 0.329 µM | > 100 µM | 0.307 µM | 2 µM | 0.338 µM | > 100 µM | 0.5 µM | > 100 µM | – | – | – | – | 0.312 µM | > 100 µM | 0.255 µM | 0.802 µM | 0.324 µM | 1.81 µM | > 100 µM | 39.3 µM |
| COc1cc2c3c(n(CCCNCCCN)c(=O)c2cc1OC)-c1cc2c(cc1C3=O)OCO2 | 25 µM | > 100 µM | 1.46 µM | 5.28 µM | 3.4 µM | 10.4 µM | 2.21 µM | 8.66 µM | > 100 µM | > 100 µM | – | – | 22.9 µM | 98.7 µM | 1.17 µM | 10.6 µM | 2.35 µM | 7.33 µM | 23 µM | 7.31 µM |
